Experimental data taken from PubChem BioAssay AID248 (DTP/NCI, 2004).
Values joined by “and” are separate entries in the source; they are usually repeats but may differ in a detail not shown here. Equal entries are not always repeated. Toxic doses and inconclusive results are not listed. Square brackets hold non-standard residues; d marks the D form. Peptide text beside a SMILES is read from it. * marks the point of attachment. Cbz = O=C(OCc1ccccc1)*; Abu = CC[CH](N)C(=O)O; OBn = c1ccc(CO*)cc1

System: L1210 leukemia ip in BDF1 mice, survival T/C
Assay: NCI In Vivo Anticancer Drug Screen. Data for tumor model L1210 Leukemia (intraperitoneal) in B6D2F1 (BDF1) mice
Settings: endpoint: mean survival time, higher = longer survival
Outline: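 Mice bearing the transplanted tumor received compound or vehicle. Survival of the treated group was divided by that of the vehicle-treated control group to give the ratio.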

[1] = dose: 100.0 mg/kg/injection, schedule: Q04DX003 (ip), vehicle: Klucel (hydroxypropylcellulose) (HPC)
[2] = dose: 200.0 mg/kg/injection, schedule: Q04DX003 (ip), vehicle: Klucel (hydroxypropylcellulose) (HPC)
[3] = dose: 100.0 mg/kg/injection, schedule: Q01DX009 (ip), vehicle: Klucel (hydroxypropylcellulose) (HPC)
[4] = dose: 200.0 mg/kg/injection, schedule: Q01DX009 (ip), vehicle: Klucel (hydroxypropylcellulose) (HPC)
[5] = dose: 400.0 mg/kg/injection, schedule: Q01DX009 (ip), vehicle: Klucel (hydroxypropylcellulose) (HPC)

Nc1ccc2cc3ccc(N)cc3nc2c1
T/C (dose: 50.0 mg/kg/injection, schedule: Q01DX001 (ip), vehicle: saline): 120 % of control

CCCCNC(=O)C1C=C2c3cccc4[nH]cc(c34)CC2N(C)C1 (stereo not drawn)
T/C (dose: 12.5 mg/kg/injection, schedule: Q01DX009 (ip), vehicle: Klucel (hydroxypropylcellulose) (HPC)): 102 % of control | T/C (dose: 25.0 mg/kg/injection, schedule: Q01DX009 (ip), vehicle: Klucel (hydroxypropylcellulose) (HPC)): 104 % of control | T/C (dose: 25.0 mg/kg/injection, schedule: Q04DX003 (ip), vehicle: Klucel (hydroxypropylcellulose) (HPC)): 93 % of control | T/C (dose: 50.0 mg/kg/injection, schedule: Q01DX009 (ip), vehicle: Klucel (hydroxypropylcellulose) (HPC)): 118 % of control | T/C (dose: 50.0 mg/kg/injection, schedule: Q04DX003 (ip), vehicle: Klucel (hydroxypropylcellulose) (HPC)): 93 % of control | T/C [1]: 104 % of control | T/C [2]: 95 % of control

CCC(NC(=O)OCc1ccccc1)C(=O)NC(C(=O)OCc1ccccc1)C(C)C (stereo not drawn) (Cbz-[Abu]-Val-OBn; configuration not given here)
T/C [3]: 96 % of control | T/C [4]: 99 % of control | T/C [5]: 96 % of control

COc1cccc(NC(=S)/C(=C(/[O-])c2ccc([N+](=O)[O-])cc2)[n+]2ccccc2)c1
T/C [3]: 97 % of control | T/C [4]: 98 % of control | T/C [5]: 94 % of control

O=[N+]([O-])c1ccc(N/N=C(\c2ccccc2)c2ccc(O)cc2O)c([N+](=O)[O-])c1
T/C (dose: 100.0 mg/kg/injection, schedule: Q01DX001 (ip), vehicle: other): 91 % of control | T/C (dose: 100.0 mg/kg/injection, schedule: Q04DX003 (ip), vehicle: other): 95 % of control | T/C (dose: 200.0 mg/kg/injection, schedule: Q01DX001 (ip), vehicle: other): 91 % of control | T/C (dose: 200.0 mg/kg/injection, schedule: Q04DX003 (ip), vehicle: other): 96 % of control | T/C (dose: 400.0 mg/kg/injection, schedule: Q01DX001 (ip), vehicle: other): 95 % of control | T/C (dose: 400.0 mg/kg/injection, schedule: Q04DX003 (ip), vehicle: other): 96 % of control

CC1(OC(=O)c2ccc([N+](=O)[O-])cc2)CC2CCC1C2 (stereo not drawn)
T/C (dose: 100.0 mg/kg/injection, schedule: Q01DX001 (ip), vehicle: saline with Tween-80): 98 % of control | T/C (dose: 200.0 mg/kg/injection, schedule: Q01DX001 (ip), vehicle: saline with Tween-80): 91 % of control | T/C (dose: 400.0 mg/kg/injection, schedule: Q01DX001 (ip), vehicle: saline with Tween-80): 104 % of control

O=NN(CCF)C(=O)NCCCl
T/C (dose: 9.0 mg/kg/injection, schedule: Q01DX001 (ip), vehicle: Klucel (hydroxypropylcellulose) (HPC)): 185 % of control and 220 % of control | T/C (dose: 14.0 mg/kg/injection, schedule: Q01DX001 (ip), vehicle: Klucel (hydroxypropylcellulose) (HPC)): 352 % of control and 355 % of control | T/C (dose: 21.0 mg/kg/injection, schedule: Q01DX001 (ip), vehicle: Klucel (hydroxypropylcellulose) (HPC)): 419 % of control and 564 % of control | T/C (dose: 32.0 mg/kg/injection, schedule: Q01DX001 (ip), vehicle: Klucel (hydroxypropylcellulose) (HPC)): 746 % of control

CCc1ccc(NC(=O)Nc2cccc(Cl)c2)cc1
T/C [3]: 92 % of control | T/C [1]: 102 % of control | T/C [4]: 89 % of control | T/C [2]: 102 % of control | T/C [5]: 99 % of control | T/C (dose: 400.0 mg/kg/injection, schedule: Q04DX003 (ip), vehicle: Klucel (hydroxypropylcellulose) (HPC)): 98 % of control

COc1ccc2c(c1)CCNC2CCO (stereo not drawn)
T/C (dose: 100.0 mg/kg/injection, schedule: Q04DX003 (ip), vehicle: saline): 103 % of control

NCCCCC(N)C(=O)NC(CCCN=C(N)N)C(=O)O (stereo not drawn) (H-Lys-Arg-OH; configuration not given here)
T/C (dose: 50.0 mg/kg/injection, schedule: Q04DX003 (ip), vehicle: water): 117 % of control | T/C (dose: 100.0 mg/kg/injection, schedule: Q01DX009 (ip), vehicle: water): 108 % of control | T/C (dose: 100.0 mg/kg/injection, schedule: Q04DX003 (ip), vehicle: water): 121 % of control | T/C (dose: 200.0 mg/kg/injection, schedule: Q01DX009 (ip), vehicle: water): 97 % of control | T/C (dose: 200.0 mg/kg/injection, schedule: Q04DX003 (ip), vehicle: water): 111 % of control | T/C (dose: 400.0 mg/kg/injection, schedule: Q04DX003 (ip), vehicle: water): 115 % of control

COc1cc2ccccc2cc1C(=O)NN
T/C (dose: 75.0 mg/kg/injection, schedule: Q04DX003 (ip), vehicle: Klucel (hydroxypropylcellulose) (HPC)): 94 % of control | T/C (dose: 150.0 mg/kg/injection, schedule: Q04DX003 (ip), vehicle: Klucel (hydroxypropylcellulose) (HPC)): 102 % of control | T/C (dose: 300.0 mg/kg/injection, schedule: Q04DX003 (ip), vehicle: Klucel (hydroxypropylcellulose) (HPC)): 97 % of control
